This passage reports IC50 results from patent publication US9994546B2, “Cyclopropylamines as LSD1 inhibitors” (Incyte Corporation, priority 2014, dated 2018).

Molecules are shown by their SMILES. Bounds are passed on as bounds.

For this assay, the target named is LSD-1 enzyme (Homo sapiens (Human), UniProt O60341). Briefly: LANCE LSD1/KDM1A demethylase assay (LSD1 histone demethylase biochemical assay). The settings on record: 1 nM LSD-1 enzyme, 1 hour preincubation at 25° C., 0.4 μM biotin-labeled Histone H3 peptide substrate. The method, then: LANCE LSD1/KDM1A demethylase assay—10 μL of 1 nM LSD-1 enzyme (ENZO BML-SE544-0050) in the assay buffer (50 mM Tris, pH 7.5, 0.01% Tween-20, 25 mM NaCl, 5 mM DTT) were preincubated for 1 hour at 25° C. with 0.8 μL compound/DMSO dotted in black 384 well polystyrene plates. […] After stopping the reactions plates were incubated for 30 minutes and read on a PHERAstar FS plate reader (BMG Labtech).
On the technique in general: In TR-FRET formats the signal depends on donor and acceptor labels being close together.

Usually IC50 stands for the point on the concentration scale where inhibition reaches its midpoint. Consider `N#CCC1(N2CCC(N[C@@H]3C[C@H]3c3ccccc3)CC2)CN(C(=O)C2(O)CCCC2)C1` [Example 85, [1-[(1-hydroxycyclopentyl)carbonyl]-3-(4-{[(1R,2S)-2-phenylcyclopropyl]amino}piperidin-1-yl)azetidin-3-yl]acetonitrile], for which the IC50 was at most 100 nM.
With `N#CCC1(N2CCC(N[C@@H]3C[C@H]3c3ccccc3)CC2)CN(C(=O)N2CCOCC2)C1` [Example 86, [1-(morpholin-4-ylcarbonyl)-3-(4-{[(1R,2S)-2-phenylcyclopropyl]amino}piperidin-1-yl)azetidin-3-yl]acetonitrile] the figure was at most 100 nM; with `N#CCC1(N2CCC(N[C@@H]3C[C@H]3c3ccccc3)CC2)CN(C(=O)N2CCC(O)CC2)C1` [Example 87, [1-[(4-hydroxypiperidin-1-yl)carbonyl]-3-(4-{[(1R,2S)-2-phenylcyclopropyl]amino}piperidin-1-yl)azetidin-3-yl]acetonitrile], at most 100 nM; with `COC1CCN(C(=O)N2CC(CC#N)(N3CCC(N[C@@H]4C[C@H]4c4ccccc4)CC3)C2)CC1` [Example 88, [1-[(4-methoxypiperidin-1-yl)carbonyl]-3-(4-{[(1R,2S)-2-phenylcyclopropyl]amino}piperidin-1-yl)azetidin-3-yl]acetonitrile], at most 100 nM.
On to `N#CCC1(N2CCC(N[C@@H]3C[C@H]3c3ccccc3)CC2)CN(C(=O)N2CC(O)C2)C1` [Example 89, [1-[(3-hydroxyazetidin-1-yl)carbonyl]-3-(4-{[(1R,2S)-2-phenylcyclopropyl]amino}piperidin-1-yl)azetidin-3-yl]acetonitrile], for which the IC50 is at most 100 nM.
The compound `CN(C)C(=O)CC1(N2CCC(N[C@@H]3C[C@H]3c3ccccc3)CC2)CN(S(C)(=O)=O)C1` [Example 90, N,N-dimethyl-2-(1-(methylsulfonyl)-3-(4-(((1R,2S)-2-phenylcyclopropyl)amino)piperidin-1-yl)azetidin-3-yl)acetamide] registered an IC50 of at most 100 nM.
With `CNC(=O)CC1(N2CCC(N[C@@H]3C[C@H]3c3ccccc3)CC2)CN(S(C)(=O)=O)C1` [Example 91, N-methyl-2-[1-(methylsulfonyl)-3-(4-{[(1R,2S)-2-phenylcyclopropyl]amino}piperidin-1-yl)azetidin-3-yl]acetamide] the figure was at most 100 nM; with `CCS(=O)(=O)N1CC(CCO)(N2CCC(N[C@@H]3C[C@H]3c3ccccc3)CC2)C1` [Example 92, 2-[1-(ethylsulfonyl)-3-(4-{[(1R,2S)-2-phenylcyclopropyl]amino}piperidin-1-yl)azetidin-3-yl]ethanol], at most 100 nM; with `CS(=O)(=O)N1CC(CCO)(N2CCC(N[C@@H]3C[C@H]3c3ccccc3)CC2)C1` [Example 93, 2-[1-(methylsulfonyl)-3-(4-{[(1R,2S)-2-phenylcyclopropyl]amino}piperidin-1-yl)azetidin-3-yl]ethanol], at most 100 nM.
Regarding `COC(=O)N1CC(CC(=O)N(C)C)(N2CCC(N[C@@H]3C[C@H]3c3ccccc3)CC2)C1` [Example 94, methyl 3-[2-(dimethylamino)-2-oxoethyl]-3-(4-{[(1R,2S)-2-phenylcyclopropyl]amino}piperidin-1-yl)azetidine-1-carboxylate], the half-inhibitory concentration (IC50) is at most 100 nM.
With `CNC(=O)CC1(N2CCC(N[C@@H]3C[C@H]3c3ccccc3)CC2)CN(C(=O)OC)C1` [Example 95, methyl 3-[2-(methylamino)-2-oxoethyl]-3-(4-{[(1R,2S)-2-phenylcyclopropyl]amino}piperidin-1-yl)azetidine-1-carboxylate] the figure was at most 100 nM.
With `CN(C)C(=O)CC1(N2CCC(N[C@@H]3C[C@H]3c3ccccc3)CC2)CN(C(=O)N(C)C)C1` [Example 96, 3-[2-(dimethylamino)-2-oxoethyl]-N,N-dimethyl-3-(4-{[(1R,2S)-2-phenylcyclopropyl]amino}piperidin-1-yl)azetidine-1-carboxamide] the figure was at most 100 nM; with `CNC(=O)CC1(N2CCC(N[C@@H]3C[C@H]3c3ccccc3)CC2)CN(C(=O)N(C)C)C1` [Example 97, N,N-dimethyl-3-[2-(methylamino)-2-oxoethyl]-3-(4-{[(1R,2S)-2-phenylcyclopropyl]amino}piperidin-1-yl)azetidine-1-carboxamide], at most 100 nM; with `Cn1cc(N2CC(CC#N)(N3CCC(N[C@@H]4C[C@H]4c4ccccc4)CC3)C2)cn1` [Example 98, [1-(1-methyl-1H-pyrazol-4-yl)-3-(4-{[(1R,2S)-2-phenylcyclopropyl]amino}piperidin-1-yl)azetidin-3-yl]acetonitrile], at most 100 nM.
In turn, `N#CCC1(N2CCC(N[C@@H]3C[C@H]3c3ccccc3)CC2)CN(C(=O)OC2CCOC2)C1` (stereo partly drawn) [Example 99, tetrahydrofuran-3-yl 3-(cyanomethyl)-3-(4-{[(1R,2S)-2-phenylcyclopropyl]amino}piperidin-1-yl)azetidine-1-carboxylate] came in with a half-maximal inhibitory concentration (IC50) of at most 100 nM.
Then `Cn1cc(S(=O)(=O)N2CC(CC#N)(N3CCC(N[C@@H]4C[C@H]4c4ccccc4)CC3)C2)cn1` [Example 100, [1-[(1-methyl-1H-pyrazol-4-yl)sulfonyl]-3-(4-{[(1R,2S)-2-phenylcyclopropyl]amino}piperidin-1-yl)azetidin-3-yl]acetonitrile], with at most 100 nM; and `CS(=O)(=O)N1CC(CC#N)(N2CCC(N[C@@H]3C[C@H]3c3ccc(F)cc3)CC2)C1` [Example 101, [3-(4-{[(1R,2S)-2-(4-fluorophenyl)cyclopropyl]amino}piperidin-1-yl)-1-(methylsulfonyl)azetidin-3-yl]acetonitrile], with at most 100 nM; and `N#CCC1(N2CCC(N[C@@H]3C[C@H]3c3ccc(F)cc3)CC2)CN(S(N)(=O)=O)C1` [Example 102, 3-(cyanomethyl)-3-(4-{[(1R,2S)-2-(4-fluorophenyl)cyclopropyl]amino}piperidin-1-yl)azetidine-1-sulfonamide], with at most 100 nM.
`O=C(O)CC1(N2CCC(CN[C@@H]3C[C@H]3c3ccccc3)CC2)CCC1` [Example 105, {1-[4-({[(1R,2S)-2-phenylcyclopropyl]amino}methyl)piperidin-1-yl]cyclobutyl}acetic acid] registered an IC50 of at most 100 nM.
`N#CCC1(N2CCC(N[C@@H]3C[C@H]3c3ccccc3)CC2)CN(C2CC(O)C2)C1` (stereo partly drawn) [Example 106, [1-(3-hydroxycyclobutyl)-3-(4-{[(1R,2S)-2-phenylcyclopropyl]amino}piperidin-1-yl)azetidin-3-yl]acetonitrile] registered a 50% inhibitory concentration (IC50) of at most 100 nM.
With `N#CCC1(N2CCC(N[C@@H]3C[C@H]3c3ccccc3)CC2)CN(C(=O)C2CCCO2)C1` (stereo partly drawn) [Example 107, 2-(3-(4-(((1R,2S)-2-phenylcyclopropyl)amino)piperidin-1-yl)-1-(tetrahydrofuran-2-carbonyl)azetidin-3-yl)acetonitrile] the figure was at most 100 nM.
Regarding `N#CCC1(N2CCC(N[C@@H]3C[C@H]3c3ccccc3)CC2)CN(C(=O)C2CCOC2)C1` (stereo partly drawn) [Example 108, [3-(4-{[(1R,2S)-2-phenylcyclopropyl]amino}piperidin-1-yl)-1-(tetrahydrofuran-3-ylcarbonyl)azetidin-3-yl]acetonitrile], the IC50 was at most 100 nM.
With `N#CCC1(N2CCC(N[C@@H]3C[C@H]3c3ccccc3)CC2)CN(C(=O)c2cncs2)C1` [Example 109, [3-(4-{[(1R,2S)-2-phenylcyclopropyl]amino}piperidin-1-yl)-1-(1,3-thiazol-5-ylcarbonyl)azetidin-3-yl]acetonitrile] the figure was at most 100 nM; with `N#CCC1(N2CCC(N[C@@H]3C[C@H]3c3ccccc3)CC2)CN(C(=O)c2ccns2)C1` [Example 110, [1-(isothiazol-5-ylcarbonyl)-3-(4-{[(1R,2S)-2-phenylcyclopropyl]amino}piperidin-1-yl)azetidin-3-yl]acetonitrile], at most 100 nM; with `N#CCC1(N2CCC(N[C@@H]3C[C@H]3c3ccccc3)CC2)CN(C(=O)c2cnccn2)C1` [Example 111, [3-(4-{[(1R,2S)-2-phenylcyclopropyl]amino}piperidin-1-yl)-1-(pyrazin-2-ylcarbonyl)azetidin-3-yl]acetonitrile], at most 100 nM.
`N#CCC1(N2CCC(N[C@@H]3C[C@H]3c3ccccc3)CC2)CN(C(=O)c2cn[nH]c2)C1` [Example 112, [3-(4-{[(1R,2S)-2-phenylcyclopropyl]amino}piperidin-1-yl)-1-(1H-pyrazol-4-ylcarbonyl)azetidin-3-yl]acetonitrile] displayed an IC50 of at most 100 nM.
`N#CCC1(N2CCC(N[C@@H]3C[C@H]3c3ccccc3)CC2)CN(C(=O)c2ccn[nH]2)C1` [Example 113, [3-(4-{[(1R,2S)-2-phenylcyclopropyl]amino}piperidin-1-yl)-1-(1H-pyrazol-5-ylcarbonyl)azetidin-3-yl]acetonitrile] registered an IC50 of at most 100 nM.
Compound `N#CCC1(N2CCC(N[C@@H]3C[C@H]3c3ccccc3)CC2)CN(C(=O)[C@@H]2CCOC2)C1` [Example 114, {3-(4-{[(1R,2S)-2-phenylcyclopropyl]amino}piperidin-1-yl)-1-[(3R)-tetrahydrofuran-3-ylcarbonyl]azetidin-3-yl}acetonitrile] came in with an IC50 of at most 100 nM.
Then `N#CCC1(N2CCC(N[C@@H]3C[C@H]3c3ccccc3)CC2)CN(C(=O)[C@H]2CCOC2)C1` [Example 115, {3-(4-{[(1R,2S)-2-phenylcyclopropyl]amino}piperidin-1-yl)-1-[(3S)-tetrahydrofuran-3-ylcarbonyl]azetidin-3-yl}acetonitrile], with at most 100 nM; and `N#CCC1(N2CCC(N[C@@H]3C[C@H]3c3ccccc3)CC2)CN(C(=O)[C@@H]2CCCO2)C1` [Example 116, {3-(4-{[(1R,2S)-2-phenylcyclopropyl]amino}piperidin-1-yl)-1-[(2S)-tetrahydrofuran-2-ylcarbonyl]azetidin-3-yl}acetonitrile], with at most 100 nM.
